From patent publication US4863935A, “Mitomycin compounds having useful anti-tumor activity” (priority 1986, dated 1989)

Columns and labels:
[1] = LD50 acute toxicity, ddy mice, single abdominal injection; details: mouse, in vivo, ip, 5 ddy mice, 14 days observation, Behrens-Koerber's method
Excerpt: (§1) As used herein, the term "LD50 " denotes the acute toxicity. The term "ED50 " denotes the administered amount needed for reducing the volume of Sarcoma 180 solid tumours in animals to 50% of the corresponding tumour volume in control (untreated) animals. The term "WBC4000 " denotes the minimum dose of the drug needed to reduce the number of peripheral leucocytes to 4000/mm^3. A greater TI value results in a broader tolerance to the drug, which is advantageous for higher anti-tumour activity and decreased toxicity. The term "T" used herein denotes the average survival days of the test animals administered with the test compound. The term "C" denotes the average survival days of the control (untreated) animals. The term "OPD" denotes the dose of the drug resulting in the highest survival ratio. The term "ILS30 " denotes a 30% increase of life-span.
LD50, ED50 and WBC4000 were respectively determined as follows:
Each animal of the test group, consisting of 5 ddy mice, was administered once with a test compound by abdominal injection. […] To determine the LD50 value, Behrens-Koerber's method was applied.

Sarcoma 180 solid tumour = experiment: ED50 against Sarcoma 180 solid tumour implanted in mice; type: in vivo, male mouse (ddy strain); details: for (CI)c: (CI of test compound)/(CI of mitomycin C), CI = LD50/ED50; for ED50: Mus musculus, Sarcoma-180, iv, 168 h, i.v. (tail vein) 24 h after implantation, tumour volume at 7 days, dose for T/C of 0.5
Excerpt: With regard to the so-called chemotherapeutic index viz. the CI value against sarcoma 180 solid tumour, expressed by the formula: […]
as §1
the term (CI)c denotes (CI of the test compound)/(CI of mitomycin C), and
5×10^6 sarcoma 180 solid tumor cells were abdominally implanted into ddy mice. 7 days after this, ascites cells were sampled. The cells were washed once with a sterilized physiological saline and were used to prepare a cell suspension containing 5×10^7 cells per ml of a sterilized physiological saline. On each occasion, 0.1 ml of the cell suspension was subcutaneously implanted under the skin of the right armpit of a male mouse (ddy strain; body weight 20±2 g). The test compound which was dissolved in a physiological saline with or without addition of Tween 80 was injected into the tail vein of each animal of a group consisting of 5 mice at a dose of 0.1-0.2 ml 24 hours after the implantation of the tumor cells.
The anti-tumor activity was determined in the following manner:
7 days after the implantation, the major axis (a) and the minor axis (b) of the tumour were measured to calculate a value of (a×b^2)/2 which corresponds to the volume of the tumour. The antitumour activity was expressed by the ratio of the volume of the tumour (T) of the group of animals administered with the test compound to the corresponding volume of tumours (C) of the untreated animals.
On graph paper, T/C was plotted on the ordinate using an arithmetic scale and the administered amount of test compound was plotted on the abscissa using a logarithmic scale. The relationship between the dose and T/C was shown by a straight line determined by the method of least squares, from which ED50 viz. a dose corresponding to T/C of 0.5 was obtained.

[2] = system: lymphocytic Leukemia P-388; experiment: Anti-tumour activity against lymphocytic Leukemia P-388 in mice; type: in vivo, mouse, female of CDF strain; details: for (ILSmax)c: (ILSmax of test compound)/(ILSmax of mitomycin C), ILS=(T-C)/C×100; for (TI)c: (TI of test compound)/(TI of mitomycin C), TI = OPD/dose which results in ILS30; for ED (optimal dose, highest survival) / ED (30% increase of life-span): Mus musculus, P388, ip, i.p. 24 h after implantation; for ED (optimal dose, highest survival): dose resulting in the highest survival ratio, 30 days, read-out: OPD; for ED (30% increase of life-span): read-out: Dose needed to give ILS30
Excerpt: Also, their therapeutic indexes, expressed by the formula:
TI=(OPD)/(dose which results in ILS30),
against lymphocytic Leukemia P-388 and the maximum increased life spans (ILSmax), defined by the formula: […]
as §1
The experiment was carried out in the following manner. 1×10^6 lymphocytic Leukemia P-388 tumour cells were abdominally implanted into each mouse of a group consisting of 5 mice (body weight about 22 g; female of CDF strain). 24 hours after implantation, a physiological saline solution (0.2 ml) containing the test compound with or without addition of Tween 80 was abdominally given to the test animal.
Table 7 indicates anti-tumour activities of selected Compounds (I) against lyphocytic Leukemia P-388.

SMILES | LD50 at 336 h [1] [mg/kg] | (CI)c (Sarcoma 180 solid tumour) | ED50 (Sarcoma 180 solid tumour) [mg/kg] | (ILSmax)c [2] | (TI)c [2] | ED (optimal dose, highest survival) [2] [mg/kg] | ED (30% increase of life-span) [2] [mg/kg]
CNC(=O)SCCNC1=C(C)C(=O)C2=C(C1=O)[C@@H](COC(N)=O)[C@@]1(OC)[C@H]3N[C@H]3CN21 [Compound 1, 7-N--(2-methylaminocarbonylthioethyl)mitomycin C] | > 100 | > 1.39 | 25.8 | 1.44 | 1.33 | 25 | 0.78
CCN(CC)C(=O)SCCNC1=C(C)C(=O)C2=C(C1=O)[C@@H](COC(N)=O)[C@@]1(OC)[C@H]3N[C@H]3CN21 [Compound 4, 7-N--(2-diethylaminocarbonylthioethyl)mitomycin C] | 45 | 1.64 | 13.3 | > 1.21 | 1.18 | 25 | 2.02
CO[C@@]12[C@H](COC(N)=O)C3=C(C(=O)C(C)=C(NCCSC(=O)NC(C)(C)C)C3=O)N1C[C@@H]1N[C@@H]12 [Compound 5, 7-N--(2-t-butylaminocarbonylthioethyl)mitomicin C] | 30 | 1.22 | 8.8 | > 1.17 | 1.80 | 25 | 1.32
COC(=O)[C@@H]1CCCN1C(=O)SCCNC1=C(C)C(=O)C2=C(C1=O)[C@@H](COC(N)=O)[C@@]1(OC)[C@H]3N[C@H]3CN21 [Compound 6, 7-N--[2-((S)--2-methoxycarbonylpyrrolidino)carbonylthioethyl]mitomycin C] | > 50 | 1.77 | 10.1 | > 1.82 | 9.09 | 100 | 1.1
CO[C@@]12[C@H](COC(N)=O)C3=C(C(=O)C(C)=C(NCCSC(=O)NC(C)C)C3=O)N1C[C@@H]1N[C@@H]12 [Compound 7, 7-N--(2-isopropylaminocarbonylthioethyl)mitomycin C] | 45 | 2.29 | 7 | > 1.76 | 2.48 | 12.5 | 0.77
COC(=O)[C@@H](NC(=O)SCCNC1=C(C)C(=O)C2=C(C1=O)[C@@H](COC(N)=O)[C@@]1(OC)[C@H]3N[C@H]3CN21)C(C)C [Compound 9, 7-N--[2-((S)--1-methoxycarbonyl-2-methylpropyl)-aminocarbonylthioethyl]mitomycin C] | 37.5 | 0.81 | 15.9 | > 1.54 | 0.92 | 12.5 | 0.84
CO[C@@]12[C@H](COC(N)=O)C3=C(C(=O)C(C)=C(NCCSC(=O)N4CCOCC4)C3=O)N1C[C@@H]1N[C@@H]12 [Compound 33, 7-N--(2-morpholinocarbonylthioethyl)mitomycin C] | 52.5 | 1.23 | 17.8 | – | – | – | –
CO[C@@]12[C@H](COC(N)=O)C3=C(C(=O)C(C)=C(NCCSC(=O)NC(C)(C)C(=O)OC(C)(C)C)C3=O)N1C[C@@H]1N[C@@H]12 [Compound 34, 7-N--[2-(1-methyl-1-t-butoxycarbonylethyl)-aminocarbonylthioethyl]mitomycin C] | 37.5 | 1.14 | 13.7 | – | – | – | –
CO[C@@]12[C@H](COC(N)=O)C3=C(C(=O)C(C)=C(NCCSC(=O)N(C)NC=O)C3=O)N1C[C@@H]1N[C@@H]12 [Compound 35, 7-N--[2-(1-methyl-2-formylhydrazino)carbonylthioethyl]mitomycin C] | 105 | 1.30 | 27.9 | – | – | – | –
CO[C@@]12[C@H](COC(N)=O)C3=C(C(=O)C(C)=C(NCCSC(=S)NC4CCCCC4)C3=O)N1C[C@@H]1N[C@@H]12 [Compound 37, 7-N--(2-cyclohexylaminothiocarbonylthioethyl)mitomycin C] | 41.3 | 0.73 | 23.5 | – | – | – | –
CC1=C(NCCSC(=S)NC2CCCCC2)C(=O)C2=C(C1=O)N1C[C@H]3[C@H](N3C)[C@]1(O)[C@H]2COC(N)=O (stereo partly drawn) [Compound 38, 7-N--(2-cyclohexylaminothiocarbonylthioethyl)mitomycin D] | 75 | 0.79 | 39.5 | – | – | – | –
CCCNC(=S)SCCNC1=C(C)C(=O)C2=C(C1=O)[C@@H](COC(N)=O)[C@@]1(OC)[C@H]3N[C@H]3CN21 [Compound 40, 7-N--(2-n-propylaminothiocarbonylthioethyl)mitomycin C] | > 25 | > 1.03 | 10.1 | – | – | – | –
CO[C@@]12[C@H](COC(N)=O)C3=C(C(=O)C(C)=C(NCCSC(=O)N4CCC(Cc5ccccc5)CC4)C3=O)N1C[C@@H]1N[C@@H]12 [Compound 41, 7-N--[2-(4-benzylpiperidino)carbonylthioethyl]mitomycin C] | 41.3 | 1.37 | 13.7 | – | – | – | –
CO[C@@]12[C@H](COC(N)=O)C3=C(C(=O)C(C)=C(NCCSC(=O)N4CCCCC4)C3=O)N1C[C@@H]1N[C@@H]12 [Compound 42, 7-N--(2-piperidinocarbonylthioethyl)mitomycin C] | 33.8 | 1.14 | 9.34 | – | – | – | –
CO[C@@]12[C@H](COC(N)=O)C3=C(C(=O)C(C)=C(NCCSC(=O)N4CCC(O)CC4)C3=O)N1C[C@@H]1N[C@@H]12 [Compound 43, 7-N--[2-(4-hydroxypiperidino)carbonylthioethyl]mitomycin C] | 52.5 | 2.17 | 9.15 | – | – | – | –
COC(=O)[C@@H]1CC(O)CN1C(=O)SCCNC1=C(C)C(=O)C2=C(C1=O)[C@@H](COC(N)=O)[C@@]1(OC)[C@H]3N[C@H]3CN21 (stereo partly drawn) [Compound 44, 7-N--[2-((S)--2-methoxycarbonyl-(SR)-4-hydroxypyrrolidino)carbonylthioethyl]mitomycin C] | > 100 | > 1.85 | 27.5 | – | – | – | –
CO[C@@]12[C@H](COC(N)=O)C3=C(C(=O)C(C)=C(NCCSC(=O)N4CCC[C@H]4C(=O)Nc4ccc(O)cc4)C3=O)N1C[C@@H]1N[C@@H]12 [Compound 45, 7-N--{2-[(S)--2-(4-hydroxyanilino)carbonylpiperidino]carbonylthioethyl}mitomycin C] | > 100 | > 0.51 | 89.1 | – | – | – | –
CO[C@@]12[C@H](COC(N)=O)C3=C(C(=O)C(C)=C(NCCSC(=O)NC(C(C)C)C(C)C)C3=O)N1C[C@@H]1N[C@@H]12 [Compound 46, 7-N--[2-(1-isopropyl-2-methylpropyl)aminocarbonylthioethyl]mitomycin C] | 37.5 | 1.27 | 12.5 | – | – | – | –
CO[C@@]12[C@H](COC(N)=O)C3=C(C(=O)C(C)=C(NCCSC(=O)NC(CO)C(C)C)C3=O)N1C[C@@H]1N[C@@H]12 (stereo partly drawn) [Compound 48, 7-N--[2-(1-hydroxymethyl-2-methylpropyl)aminocarbonylthioethyl]mitomycin C] | 45 | 1.39 | 14.3 | – | – | – | –
CO[C@@]12[C@H](COC(N)=O)C3=C(C(=O)C(C)=C(NCCSC(=O)NCCc4ccccn4)C3=O)N1C[C@@H]1N[C@@H]12 [Compound 49, 7-N--[2-{2-(2-pyridyl)ethyl}aminocarbonylthioethyl]mitomycin C] | 75 | 1.57 | 22.8 | – | – | – | –
